Measured values reported in patent publication US20230117034A1, “PYRAZOLOTRIAZINES” (Bayer Aktiengesellschaft, priority 2019, published 2023).

Columns and labels:
CDK9/CycT1 = biological target: T1, CDK9/CycT1 (Homo sapiens, UniProt P50750); assay: CDK9/CycT1 high ATP kinase assay (TR-FRET, 2 mM ATP); type: biochemical; details: 2 mM ATP (high ATP); median; read-out: CDK9/CyclinT1, 2 mM ATP (high ATP), IC50 (median)
T1 construct: Recombinant full-length His-tagged human CDK9 and CycT1; purchased Life Technologies PV4131; host or cells: insect cells
Experimental: CDK9/CycT1-inhibitory activity of compounds of the present invention at a high ATP concentration after preincubation of enzyme and test compounds was quantified employing the CDK9/CycT1 TR-FRET assay as described in the following paragraphs.
Recombinant full-length His-tagged human CDK9 and CycT1, expressed in insect cells and purified by Ni-NTA affinity chromatography, were purchased from Life Technologies (Cat. No PV4131). As substrate for the kinase reaction biotinylated peptide biotin-Ttds-[…] (C-terminus in amide form) was used which can be purchased e.g. form the company JERINI peptide technologies (Berlin, Germany).
For the assay 50 nanoL of a 100 fold concentrated solution of the test compound in DMSO was pipetted into either a black low volume 384 well microtiter plate or a black 1536 well microtiter plate (both Greiner Bio-One, Frickenhausen, Germany), 2 microL of a solution of CDK9/CycT1 in aqueous assay buffer [50 millimol/L Tris/HCl pH 8.0, 10 millimol/L MgCl2, 1.0 millimol/L dithiothreitol, 0.1 millimol/L sodium ortho-vanadate, 0.01% (v/v) Nonidet-P40 (Sigma)] were added and the mixture was incubated for 15 min at 22° C. to allow pre-binding of the test compounds to the enzyme before the start of the kinase reaction. […] The concentration of CDK9/CycT1 was adjusted depending of the activity of the enzyme lot and was chosen appropriate to have the assay in the linear range, typical concentrations were in the range of 0.5 microg/ml.
(§1) The resulting mixture was incubated 1 h at 22° C. to allow the formation of complex between the phosphorylated biotinylated peptide and the detection reagents. Subsequently the amount of phosphorylated substrate was evaluated by measurement of the resonance energy transfer from the Eu-chelate to the streptavidine-XL. Therefore, the fluorescence emissions at 620 nm and 665 nm after excitation at 350 nm was measured in a TR-FRET reader, e.g. a Pherastar (BMG Labtechnologies, Offenburg, Germany) or a Viewlux (Perkin-Elmer). The ratio of the emissions at 665 nm and at […] was taken as the measure for the amount of phosphorylated substrate.

CDK2/CycE = biological target: T2, CDK2/CycE (Homo sapiens, UniProt P24941); assay: CDK2/CycE kinase assay (TR-FRET, 2 mM ATP); type: biochemical; details: 2 mM ATP (high ATP); median; read-out: CDK2/CyclinE, 2 mM ATP (high ATP), IC50 (median)
T2 construct: purchased ProQinase GmbH (Freiburg, Germany); host or cells: insect cells (Sf9)
Text: CDK2/CycE-inhibitory activity of compounds of the present invention was quantified employing the CDK2/CycE TR-FRET assay as described in the following paragraphs.
Recombinant fusion proteins of GST and human CDK2 and of GST and human CycE, expressed in insect cells (Sf9) and purified by Glutathion-Sepharose affinity chromatography, were purchase from ProQinase GmbH (Freiburg, Germany). As substrate for the kinase reaction biotinylated peptide biotin-Ttds-YISPLKSPYKISEG (C-terminus in amid form) was used which can be purchased e.g. form the company JERINI peptide technologies (Berlin, Germany).
For the assay 50 nanoL of a 100 fold concentrated solution of the test compound in DMSO was pipetted into a black low volume 384 well microtiter plate or a black 1536 well microtiter plate (both Greiner Bio-One, Frickenhausen, Germany), 2 microL of a solution of CDK2/CycE in aqueous assay buffer [50 millimol/L Tris/HCl pH 8.0, 10 millimol/L MgCl2, 1.0 millimol/L dithiothreitol, 0.1 millimol/L sodium ortho-vanadate, 0.01% (v/v) Nonidet-P40 (Sigma)] were added and the mixture was incubated for 15 min at 22° C. to allow pre-binding of the test compounds to the enzyme before the start of the kinase reaction. Then the kinase reaction was started by the addition of 3 microL of a solution of adenosine-tri-phosphate (ATP, 3.33 millimol/L=>final conc. in the 5 microL assay volume is 2 millimol/L) and substrate (1.25 micromol/L=>final conc. in the 5 microL assay volume is 0.75 micromol/L) in assay buffer and the resulting mixture was incubated for a reaction time of 25 min at 22° C. The concentration of CDK2/CycE was adjusted depending of the activity of the enzyme lot and was chosen appropriate to have the assay in the linear range, typical concentrations were in the range of 10 ng/ml. The reaction was stopped by the addition of 3 microL of a solution of TR-FRET detection reagents (0.333 micromol/L streptavidine-XL665 [Cisbio Bioassays, Codolet, France] and 1.67 nanomol/L anti-RB(pSer807/pSer8l 1)-antibody from BD Pharmingen [#558389] and 2 nanomol/L LANCE EU-W1024 labeled anti-mouse IgG antibody [Perkin-Elmer, product no. AD0077, as an alternative a Terbium-cryptate-labeled anti-mouse IgG antibody from Cisbio Bioassays can be used]) in an aqueous EDTA-solution (167 millimol/L EDTA, 0.2% (w/v) bovine serum albumin in 100 millimol/L HEPES pH 7.5).
as §1, with “substrate. The data were normalised (enzyme reaction without inhibitor=0% inhibition, all other assay components but no enzyme=100% inhibition).” for “substrate.”

T1 sequence (P50750 whole entry): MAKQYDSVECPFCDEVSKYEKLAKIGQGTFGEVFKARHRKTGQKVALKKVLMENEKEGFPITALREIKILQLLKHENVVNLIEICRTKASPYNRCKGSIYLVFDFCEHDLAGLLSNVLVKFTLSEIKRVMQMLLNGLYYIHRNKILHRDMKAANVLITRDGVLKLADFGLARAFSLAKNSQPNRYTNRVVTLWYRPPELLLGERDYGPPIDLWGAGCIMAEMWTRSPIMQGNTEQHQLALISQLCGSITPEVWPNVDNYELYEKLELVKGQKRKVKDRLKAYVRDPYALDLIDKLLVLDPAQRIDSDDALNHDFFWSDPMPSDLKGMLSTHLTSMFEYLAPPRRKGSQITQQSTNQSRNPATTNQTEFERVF
T1 sequence (O60563 whole entry partner): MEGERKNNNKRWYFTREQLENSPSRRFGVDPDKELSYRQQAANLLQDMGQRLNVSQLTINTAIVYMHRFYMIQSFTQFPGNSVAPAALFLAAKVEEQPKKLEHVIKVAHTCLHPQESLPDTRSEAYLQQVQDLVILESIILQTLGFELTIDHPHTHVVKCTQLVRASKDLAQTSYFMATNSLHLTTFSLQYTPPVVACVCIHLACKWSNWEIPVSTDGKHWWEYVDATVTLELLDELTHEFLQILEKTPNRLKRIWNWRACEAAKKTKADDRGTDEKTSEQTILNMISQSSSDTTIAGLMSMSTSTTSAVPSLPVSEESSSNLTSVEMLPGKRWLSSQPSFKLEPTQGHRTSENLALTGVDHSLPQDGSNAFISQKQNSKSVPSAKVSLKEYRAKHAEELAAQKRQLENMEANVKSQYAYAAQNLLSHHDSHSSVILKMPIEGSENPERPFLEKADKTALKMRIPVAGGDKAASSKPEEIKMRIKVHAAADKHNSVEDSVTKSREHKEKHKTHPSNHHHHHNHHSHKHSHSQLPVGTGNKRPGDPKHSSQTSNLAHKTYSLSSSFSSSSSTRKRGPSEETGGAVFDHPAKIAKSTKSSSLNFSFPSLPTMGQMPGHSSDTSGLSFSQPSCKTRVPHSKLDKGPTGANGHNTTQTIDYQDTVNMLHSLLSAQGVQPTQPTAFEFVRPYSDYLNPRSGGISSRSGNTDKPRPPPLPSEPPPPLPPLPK

| Structure (SMILES) | IC50 (CDK9/CycT1) [µM] | IC50 (CDK2/CycE) [µM] |
| --- | --- | --- |
| Cc1cccc2[nH]c(CNc3nc(N4CCN(C)CC4)nc4c(Br)cnn34)nc12 [Example 151, 8-bromo-N-[(4-methyl-1H-benzimidazol-2-yl)methyl]-2-(4-methylpiperazin-1-yl)pyrazolo[1,5-a][1,3,5]triazin-4-amine] | > 20 | 13.4 |
| CC(C)c1cnn2c(NCc3nc4ccccc4[nH]3)nc(N(C)CC(C)(C)O)nc12 [Example 5, 1-{[4-{[(1H-benzimidazol-2-yl)methyl]amino}-8-(propan-2-yl)pyrazolo[1,5-a][1,3,5]triazin-2-yl](methyl)amino}-2-methylpropan-2-ol] | > 20 | 1.36 |
| CN1CCN(c2nc(NCc3nc4c(F)c(F)ccc4[nH]3)n3ncc(C4CC4)c3n2)CC1 [Example 159, 8-cyclopropyl-N-[(4,5-difluoro-1H-benzimidazol-2-yl)methyl]-2-(4-methylpiperazin-1-yl)pyrazolo[1,5-a][1,3,5]triazin-4-amine] | > 20 | > 20 |
| c1ccc(-c2cnn3c(NCc4nc5ccccc5[nH]4)nc(N4CCOCC4)nc23)cc1 [Example 104, N-[(1H-benzimidazol-2-yl)methyl]-2-(morpholin-4-yl)-8-phenylpyrazolo[1,5-a][1,3,5]triazin-4-amine] | > 20 | > 20 |
| C[C@H]1CCCCN1c1nc(NCc2nc3ccccc3[nH]2)n2ncc(Br)c2n1 [Example 141, N-[(1H-benzimidazol-2-yl)methyl]-8-bromo-2-[(2S)-2-methylpiperidin-1-yl]pyrazolo[1,5-a][1,3,5]triazin-4-amine] | 12.9 | 0.707 |
| NCCc1cccc2[nH]c(CNc3nc(N4CCOCC4)nc4c(Br)cnn34)nc12 [Example 112, N-{[7-(2-aminoethyl)-1H-benzimidazol-2-yl]methyl}-8-bromo-2-(morpholin-4-yl)pyrazolo[1,5-a][1,3,5]triazin-4-amine] | > 20 | 4.34 |
| NCCc1ccc2[nH]c(CNc3nc(N4CCOCC4)nc4c(Br)cnn34)nc2c1.O=CO [Example 113, formic acid-N-{[5-(2-aminoethyl)-1H-benzimidazol-2-yl]methyl}-8-bromo-2-(morpholin-4-yl)pyrazolo[1,5-a][1,3,5]triazin-4-amine (1/1)] | > 18.9 | 1.2 |
| Brc1cnn2c(NCc3nnc(-c4ccccc4)[nH]3)nc(N3C[C@H]4C[C@@H]3CO4)nc12 [Example 118, 8-bromo-2-[(1R,4R)-2-oxa-5-azabicyclo[2.2.1]heptan-5-yl]-N-[(5-phenyl-4H-1,2,4-triazol-3-yl)methyl]pyrazolo[1,5-a][1,3,5]triazin-4-amine] | 3.63 | 3.39 |
| Fc1cccc(-c2nnc(CNc3nc(N4C[C@H]5C[C@@H]4CO5)nc4c(Br)cnn34)[nH]2)c1 [Example 153, 8-bromo-N-{[5-(3-fluorophenyl)-4H-1,2,4-triazol-3-yl]methyl}-2-[(1R,4R)-2-oxa-5-azabicyclo[2.2.1]heptan-5-yl]pyrazolo[1,5-a][1,3,5]triazin-4-amine] | 1.23 | 1.7 |
| CC(C)c1cnn2c(NCc3nc4ccccc4[nH]3)nc(N3CC4(COC4)C3)nc12 [Example 9, N-[(1H-benzimidazol-2-yl)methyl]-2-(2-oxa-6-azaspiro[3.3]heptan-6-yl)-8-(propan-2-yl)pyrazolo[1,5-a][1,3,5]triazin-4-amine] | > 20 | 14.7 |
| C[C@H]1CN(c2nc(NCc3nc4ccccc4[nH]3)n3ncc(Br)c3n2)CCN1C [Example 132, N-[(1H-benzimidazol-2-yl)methyl]-8-bromo-2-[(3S)-3,4-dimethylpiperazin-1-yl]pyrazolo[1,5-a][1,3,5]triazin-4-amine] | > 20 | 7.43 |
| CN1CCN(c2nc(NCc3nc4cc(F)ccc4[nH]3)n3ncc(Br)c3n2)CC1 [Example 134, 8-bromo-N-[(5-fluoro-1H-benzimidazol-2-yl)methyl]-2-(4-methylpiperazin-1-yl)pyrazolo[1,5-a][1,3,5]triazin-4-amine] | > 20 | 12 |
| COc1ccc2[nH]c(CNc3nc(N4C[C@@H](C)O[C@@H](C)C4)nc4c(Br)cnn34)nc2c1 [Example 124, 8-bromo-2-[(2R, 6S)-2,6-dimethylmorpholin-4-yl]-N-[(5-methoxy-1H-benzimidazol-2-yl)methyl]pyrazolo[1,5-a][1,3,5]triazin-4-amine] | 6.1 | 8.97 |
| C[C@@H]1CN(c2nc(NCc3nnc(-c4ccccc4)[nH]3)n3ncc(Br)c3n2)C[C@H](C)N1 [Example 127, 8-bromo-2-[(3R,5S)-3,5-dimethylpiperazin-1-yl]-N-[(5-phenyl-4H-1,2,4-triazol-3-yl)methyl]pyrazolo[1,5-a][1,3,5]triazin-4-amine] | 6.32 | > 20 |
| C[C@@H]1CN(c2nc(NCc3nc4ccccc4[nH]3)n3ncc(Br)c3n2)C[C@H](C)N1C [Example 129, N-(1H-benzimidazol-2-ylmethyl)-8-bromo-2-[(3R,5S)-3,4,5-trimethylpiperazin-1-yl]pyrazolo[1,5-a][1,3,5]triazin-4-amine] | > 20 | > 20 |
| C[C@@H]1CN(c2nc(NCc3nc4cc(F)ccc4[nH]3)n3ncc(Br)c3n2)C[C@H](C)O1 [Example 110, 8-bromo-2-[(2R,6S)-2,6-dimethylmorpholin-4-yl]-N-[(5-fluoro-1H-benzimidazol-2-yl)methyl]pyrazolo[1,5-a][1,3,5]triazin-4-amine] | 5.47 | 8.21 |
| CCN1CCN(c2nc(NCc3nc4ccccc4[nH]3)n3ncc(Br)c3n2)CC1 [Example 137, N-[(1H-benzimidazol-2-yl)methyl]-8-bromo-2-(4-ethylpiperazin-1-yl)pyrazolo[1,5-a][1,3,5]triazin-4-amine] | > 20 | – |
| COc1ccc2[nH]c(CNc3nc(N4CCN(C)CC4)nc4c(Br)cnn34)nc2c1 [Example 161, 8-bromo-N-[(5-methoxy-1H-benzimidazol-2-yl)methyl]-2-(4-methylpiperazin-1-yl)pyrazolo[1,5-a][1,3,5]triazin-4-amine] | > 20 | – |
